Values quoted from earlier work, collected in US8193152B2 (priority 2004, dated 2012).
Like-named read-outs stand apart in the source and are kept apart here.

Legend:
[1] = in vivo
mycobacteria = settings: human, in vivo
[2] = in vivo; remark: listed apart in the source
mycobacterial infection = settings: mouse, in vivo
Machupo = settings: rhesus monkey, in vivo
PIC = settings: guinea pig, in vivo

N[C@H](CCC(=O)N[C@@H](Cc1c[nH]c2ccccc12)C(=O)O)C(=O)O [SCV-07, γ-D-glutamyl-L-tryptophan]
immunostimulatory effect [1]: strong immunostimulatory effect | expression of Thy-1.2 (bone marrow cells): stimulates expression | cavity healing and symptoms of tuberculosis (mycobacteria): positive effect | drug-induced adverse effects (mycobacteria): without any drug-induced adverse effects | incidence of mycobacteria-negative sputum cultures (mycobacteria): increased | immunostimulatory effect [2]: strong immunostimulatory effect | Con-A-induced thymocyte and lymphocyte proliferation (thymocyte and lymphocyte): increases | Con-A-induced interleukin-2 (IL-2) production (spleen lymphocytes): increases | IL-2 receptor expression (spleen lymphocytes): increases | IFNγ production by Con-A-induced spleen cells (mycobacterial infection): higher | IL-4 production by Con-A-induced spleen cells (mycobacterial infection): lower | Phagocytic activity by peritoneal macrophages (mycobacterial infection): markedly increased | lung damage (mycobacterial infection): significantly decrease

poly (ICLC)
Overall mortality and time to death (Machupo): not improved | viremia (Machupo): significantly higher

IFNα
mortality (PIC): No significant improvement in mortality

NC(=O)c1ncn([C@@H]2O[C@H](CO)[C@@H](O)[C@H]2O)n1 [ribavirin, Ribavirin, reference compound]
time to death (PIC): prolonged
